Assay results as given in publication PMC9613470, “Diverse MarR bacterial regulators of auxin catabolism in the plant microbiome” (Nature Microbiology, 2022).
“And” between values parts separate entries of the source, which are not always exact repeats. Equal values may be shown once.

How the values were obtained:
[1] = molecular target: Variovorax paradoxus CL14 MarR_73 (Variovorax paradoxus, UniProt C5CSP2); assay: biochemical; assay type: binding; conditions: ITC, 25 °C, 20 mM HEPES pH 7.4, 50 mM NaCl, 0.5% DMSO, mean of two measurements ± standard error
Chain of Variovorax paradoxus CL14 MarR_73 (C5CSP2 entry or part of it): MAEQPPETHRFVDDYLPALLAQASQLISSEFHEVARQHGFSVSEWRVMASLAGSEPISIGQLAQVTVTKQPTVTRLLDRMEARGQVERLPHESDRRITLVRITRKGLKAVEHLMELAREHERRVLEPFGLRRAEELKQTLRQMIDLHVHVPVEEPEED
Experimental: (§1) The coding sequence for each gene can be found in Supplementary Table 10. MarR expression plasmids were synthesized as codon-optimized genes for E. coli expression by BioBasic in the pLIC-His N-term vector (pMCSG7) and transformed into E. coli BL21 (DE3) Gold cells for expression. […] At an OD600 of 0.8, protein expression was induced by the addition of 0.1 mM IPTG and incubation continued overnight. Cells were collected by centrifugation at 4,500 × g for 20 min at 4 °C in a Sorvall (model RC-3B) swinging bucket centrifuge. Cell pellets were resuspended in buffer A (20 mM potassium phosphate, pH 7.4, 50 mM imidazole, 500 mM NaCl), DNase, lysozyme and a Roche Complete EDTA-free protease inhibitor tablet. Resuspended cells were sonicated and clarified via centrifugation at 17,000 × g for 60 min in a Sorvall (model RC-5B) swinging bucket centrifuge. The lysate was applied to a nickel-nitrilotriacetic acid HP column (GE Healthcare) on an Aktaxpress Fast Performance Liquid Chromatography (FPLC) system (Amersham Bioscience) and washed with buffer A. Protein was eluted with buffer B (20 mM potassium phosphate, pH 7.4, 500 mM imidazole, 500 mM NaCl). Fractions containing the protein of interest were combined and passed over a HiLoadTM 16/60 SuperdexTM 200 gel filtration column. Proteins were eluted in S200 buffer (20 mM HEPES, pH 7.4, 300 mM NaCl). Fractions were combined and concentrated for long-term storage at −80 °C.
(§2) All ITC measurements were performed at 25 °C using an Auto-ITC200 microcalorimeter (MicroCal/GE Healthcare). The buffer employed was 20 mM HEPES, pH 7.4, 50 mM NaCl and 0.5% dimethly sulfoxide (DMSO) for protein/ligand binding and 20 mM HEPES, pH 7.4 and 300 mM NaCl for DNA/protein binding experiments. For ligand binding experiments, the calorimetry cell (volume […]) was loaded with MarR wild-type, mutant or homologue protein at a concentration of 50 μM. The syringe was loaded with a ligand concentration of 0.5 or 2 mM. […] A typical injection protocol included a single 0.2 μl first injection followed by 20 1.5 μl injections of the syringe sample into the calorimetry cell. The spacing between injections was kept at 180 s and the reference power at 8 μcal s^−1. […] Two independent ITC measurements were performed for each condition.

MarR_73 S28A = MarR_73 S28A (Variovorax paradoxus, UniProt C5CSP2, S28A); assay: biochemical
Chain of MarR_73 S28A (C5CSP2 1-158, stated change not applied): as the sequence (C5CSP2 entry or part of it) above
Experimental: as §1
MarR mutant proteins were created by site-directed mutagenesis using primers from Integrated DNA Technologies. […] The mutants were produced and purified using E. coli BL21 (DE3) Gold as described above.
as §2

O=C(O)Cc1c[nH]c2ccccc12 [IAA, indole-3-acetic acid]
N (ligand binding stoichiometry to the MarR monomer) [1]: 0.732 ± 0.036
N (ligand binding stoichiometry to the MarR monomer) ([1]; listed as Indole-3-Acetic Acid (IAA)): 0.73 ± 0.04
Kd ([1]; KD): 410 nM and 408 nM
Kd (MarR_73 S28A): 2400 ± 100 nM
N (MarR_73 S28A; ITC, 25 °C, mutant S28A): 0.52 ± 0.01
